Assay results reported in patent US9980948B2, “Azaindole derivative having AMPK-activating activity” (Shionogi & Co., Ltd., priority 2014, dated 2018).

Molecular target: T1, Human AMPK α2β2γ1 (Homo sapiens, UniProt O43741+P54646)
T1 construct: The full length cDNAs of human AMPK β2 (NM_005399.3) and human AMPK α2 (NM_006252.3); The full length cDNAs of human AMPK β2 (NM_005399.3); the full length cDNA of human AMPK γ1 (NM_002733.3) had been inserted into pET28b(+); 6xHis (N); made in house; host or cells: Escherichia coli BL21 CodonPlus (DE3)-RTL (AMPK); BL21 Star (DE3) (CaMKKβ)
T1 sequence (P54646 whole entry): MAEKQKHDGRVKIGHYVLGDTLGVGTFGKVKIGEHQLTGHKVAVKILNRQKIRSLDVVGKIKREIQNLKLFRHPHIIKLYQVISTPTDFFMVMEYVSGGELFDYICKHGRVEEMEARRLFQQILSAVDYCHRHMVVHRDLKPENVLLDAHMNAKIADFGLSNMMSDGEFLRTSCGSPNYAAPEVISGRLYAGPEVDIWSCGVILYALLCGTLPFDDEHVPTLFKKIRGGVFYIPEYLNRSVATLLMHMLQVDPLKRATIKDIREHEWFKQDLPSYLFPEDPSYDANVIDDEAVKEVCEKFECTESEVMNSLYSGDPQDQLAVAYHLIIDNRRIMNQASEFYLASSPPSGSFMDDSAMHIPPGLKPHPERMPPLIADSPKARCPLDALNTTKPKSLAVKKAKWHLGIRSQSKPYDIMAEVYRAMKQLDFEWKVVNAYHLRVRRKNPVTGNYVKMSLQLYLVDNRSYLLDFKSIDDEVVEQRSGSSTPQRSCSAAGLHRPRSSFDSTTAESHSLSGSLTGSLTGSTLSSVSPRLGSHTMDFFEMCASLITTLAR
T1 sequence (O43741 whole entry): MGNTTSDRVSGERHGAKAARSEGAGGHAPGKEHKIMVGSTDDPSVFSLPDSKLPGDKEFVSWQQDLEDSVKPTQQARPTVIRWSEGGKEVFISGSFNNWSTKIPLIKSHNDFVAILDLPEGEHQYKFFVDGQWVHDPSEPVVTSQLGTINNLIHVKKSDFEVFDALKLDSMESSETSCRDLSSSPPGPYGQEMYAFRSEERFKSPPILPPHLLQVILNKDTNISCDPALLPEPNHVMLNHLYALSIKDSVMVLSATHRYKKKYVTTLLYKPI
T1 sequence (P54619 whole entry partner): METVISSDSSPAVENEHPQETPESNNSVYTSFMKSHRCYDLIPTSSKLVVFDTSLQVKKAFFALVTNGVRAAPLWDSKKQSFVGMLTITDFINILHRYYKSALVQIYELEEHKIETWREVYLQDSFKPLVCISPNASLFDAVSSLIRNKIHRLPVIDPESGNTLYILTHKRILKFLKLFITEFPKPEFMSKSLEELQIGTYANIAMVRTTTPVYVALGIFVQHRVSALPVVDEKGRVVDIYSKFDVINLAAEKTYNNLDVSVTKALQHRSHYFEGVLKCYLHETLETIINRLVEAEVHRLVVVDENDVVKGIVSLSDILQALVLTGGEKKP
Test: Test Example 2: evaluation of an activator for AMP-activated protein kinase (AMPK), human AMPK α2β2γ1 phosphorylated with CaMKK2, FL-Peptide 7 mobility shift
Type: biochemical
Conditions: for EC150 (compound concentration showing 150% relative to the control (100%)): human AMPK α2β2γ1, 0.2 mM ATP final, 25° C., 2 hours; for Emax: human AMPK α2β2γ1, relative to control (100%), read-out: Emax (maximum rate of increase in activity within the measurement range)
Description: The full length cDNAs of human AMPK β2 (NM_005399.3) and human AMPK α2 (NM_006252.3) were inserted into the MCS1 and MCS2 of the pETDuet-1 vector to prepare a human AMPK β2 and human AMPK α2 (6× His tag at the 5′ terminus) expressing plasmid. The plasmid was cotransfected with an expression plasmid, in which the full length cDNA of human AMPK γ1 (NM_002733.3) had been inserted into pET28b(+), into BL21 CodonPlus (DE3)-RTL to obtain an expression strain. The expression strain was cultured in TB medium, followed by induction with 0.5 mM IPTG, and cultured at 25° C. for 3 hours and then harvested.
An expression vector, in which the full length cDNA of human CAMKK β (NM_172226.1) had been inserted into pGEX-6P-3, was transfected into BL21 Star (DE3). The expression strain was cultured in TB medium, followed by induction with 0.5 mM IPTG, and cultured at 25° C. for 3 hours and then harvested.
Thus, phosphorylation treatment was carried out as pretreatment.
Human AMPK α2β2γ1 in an amount to give a conversion rate of approximately 10% by reaction for 2 hours, and CaMKK2 in an amount capable of sufficiently imparting activity to AMPK for one hour were mixed in a buffer solution consisting of a 50 mM HEPES-NaOH buffer solution (pH 7.0), 100 mM NaCl, 5 mM magnesium chloride, 0.1% bovine serum albumin, 0.2 mM sodium orthovanadate(V), 1 mM ethylene glycol-bis(2-aminoethyl ether)-N,N,N′,N′-tetraacetic acid (EGTA), 5 mM disodium β-glycerophosphate, 1 mM dithiothreitol and 0.2 mM ATP, and the obtained liquid was left to stand at 25° C. for 1 to 1.5 hours to sufficiently phosphorylate AMPK.
The obtained liquid was left to stand for 10 minutes.
The obtained liquid was allowed to react at 25° C. for 2 hours, and 10 μl of 20 mM EDTA was then added thereto to stop the reaction.
To detect phosphorylated fluorescent substrates, the reaction liquid was applied to a measuring device, LabChip EZ Reader II manufactured by Caliper Life Science, Inc., for detecting fluorescence by using differences in mobility due to differences in charge. The setting conditions for the device were pressure, −1.5 PSI; upstream voltage, −2250 V; downstream voltage, −400 V; post sample buffer sip time, 40 seconds; final delay, 120 seconds; and peak order, Product First.
A conversion rate was calculated from the peak heights of the resulting substrate and product. The conversion rate when not containing a compound was used as a control, and a concentration dependent curve was made by plotting the rate of increase in activity to the control at each concentration of a compound.

Structure (SMILES) | EC150 (compound concentration showing 150% relative to the control (100%)) [nM] | Emax [%]
N#Cc1c(O[C@@H]2CO[C@H]3[C@@H]2OC[C@H]3O)[nH]c2cc(Cl)c(OCc3c(F)cccc3F)nc12 [Compound I-1-1] | 330 | 660
N#Cc1cc2[nH]c(O[C@@H]3CO[C@H]4[C@@H]3OC[C@H]4O)cc2nc1-c1ccc(N2CCOCC2)cc1 [Compound I-1-4] | 8.3 | 849
O[C@@H]1CO[C@H]2[C@@H]1OC[C@H]2Oc1cc2nc(-c3c(F)cc(C4=CCOCC4)cc3F)c(F)cc2[nH]1 [Compound I-1-6] | 2 | 647
N#Cc1c(O[C@@H]2CO[C@H]3[C@@H]2OC[C@H]3O)[nH]c2cc(Cl)c(-c3ccc(-c4ccccc4)cc3)nc12 [Compound I-1-7] | 59 | 805
O=C(O)C1CC=C(c2ccc(-c3nc4cc(O[C@H]5CCOC5)[nH]c4cc3Cl)cc2)CC1 (stereo partly shown) [Compound I-1-8] | 4.1 | 338
O=C(CO)N1CC=C(c2cc(F)c(-c3nc4cc(O[C@@H]5CO[C@H]6[C@@H]5OC[C@H]6O)[nH]c4cc3Cl)c(F)c2)CC1 [Compound I-1-10] | 1.8 | 751
O[C@@H]1CO[C@H]2[C@@H]1OC[C@H]2Oc1[nH]c2cc(Cl)c(-c3ccc(N4CCOCC4)cc3)nc2c1Cl [Compound I-1-11] | 3.9 | 770
N#Cc1c(O[C@@H]2CO[C@H]3[C@@H]2OC[C@H]3O)[nH]c2cc(Cl)c(-c3ccc(C4=CCN(C(=O)CO)CC4)cc3)nc12 [Compound I-1-12] | 23 | 779
O[C@@H]1CO[C@H]2[C@@H]1OC[C@H]2Oc1[nH]c2cc(Cl)c(-c3c(F)cc(C4=CCOCC4)cc3F)nc2c1Cl [Compound I-1-15] | 53 | 680
CC(C)(C(=O)O)[C@H]1CC[C@H](Oc2cc3nc(-c4c(F)cc(N5CCOCC5)cc4F)c(Cl)cc3[nH]2)CC1 [Compound I-1-16] | 810 | 204
OC[C@@H]1C[C@H](Oc2cc3nc(-c4c(F)cc(N5CCOCC5)cc4F)c(Cl)cc3[nH]2)CO1 [Compound I-1-18] | 22 | 776
O=C(O)C1CC=C(c2ccc(-c3nc4c(Cl)c(O[C@@H]5CO[C@H]6[C@@H]5OC[C@H]6O)[nH]c4cc3Cl)cc2)CC1 (stereo partly shown) [Compound I-1-20] | 2.9 | 746
O=C(O)C1CC=C(c2cc(F)c(-c3nc4cc(O[C@H]5CCOC5)[nH]c4cc3Cl)c(F)c2)CC1 (stereo partly shown) [Compound I-1-23] | 11 | 341
O[C@@H]1CO[C@H]2[C@@H]1OC[C@H]2Oc1cc2nc(-c3ccc(N4CCOCC4)cc3F)c(Cl)cc2[nH]1 [Compound I-1-25] | 11 | 768
CN(C)CCOc1ccc(-c2ccc(-c3nc4c(C#N)c(O[C@@H]5CO[C@H]6[C@@H]5OC[C@H]6O)[nH]c4cc3Cl)cc2)cc1 [Compound I-1-37] | 6 | 859
COc1cccc(-c2ccc(-c3nc4c(C#N)c(O[C@@H]5CO[C@H]6[C@@H]5OC[C@H]6O)[nH]c4cc3Cl)cc2)c1O [Compound I-1-38] | 1.5 | 841
O[C@@H]1CO[C@H]2[C@@H]1OC[C@H]2Oc1cc2nc(-c3ccc(N4CCOCC4)cc3)c(F)cc2[nH]1 [Compound I-1-39] | 5.3 | 788
